Results as given in ChEMBL document CHEMBL1152664, “Visual observation of G-quadruplex DNA with the label-free fluorescent probe silole with aggregation-induced emission” (Bioorg Med Chem, 2009).
Activity calls are given as the source filed them. No cut-off for these calls is given here.

Legend:
Type in all cases: nucleic-acid assay
Nucleic Acid [1] = test: Binding affinity to 21G telomeric DNA assessed as formation of G-quadruplex DNA at 20 uM after 5 mins in KCl-deficient buffer by label-free fluorescence spectroscopy in presence of exonuclase 1
Nucleic Acid [2] = test: Binding affinity to 21G telomeric DNA assessed as formation of G-quadruplex DNA at 20 uM after 5 mins by label-free fluorescence spectroscopy in presence of exonuclase 1 and KCl
Nucleic Acid [3] = test: Binding affinity to 21G telomeric DNA assessed as formation of G-quadruplex DNA at 20 uM by circular dichroism assay in presence of KCl and exonuclase 1
Nucleic Acid [4] = test: Binding affinity to 21G telomeric DNA assessed as formation of G-quadruplex DNA at 20 uM after 5 mins by label-free fluorescence spectroscopy in presence of exonuclase 1 and increasing concentration of KCl
Nucleic Acid [5] = test: Binding affinity to 21G telomeric DNA assessed as formation of G-quadruplex DNA at 20 uM after 5 mins by label-free fluorescence spectroscopy in presence of LiCl and exonulease 1
Nucleic Acid [6] = test: Binding affinity to single stranded DNA20 assessed as formation of G-quadruplex DNA at 20 uM by UV light illumination photographic analysis in presence of exonuclase 1 and KCl
Nucleic Acid [7] = test: Binding affinity to 21G telomeric DNA assessed as formation of c-myc G-quadruplex DNA at 20 uM by UV light illumination photographic analysis in presence of exonuclase 1 and KCl
Nucleic Acid [8] = test: Binding affinity to 21G telomeric DNA assessed as formation of c-kit G-quadruplex DNA at 20 uM by UV light illumination photographic analysis in presence of exonuclase 1 and KCl
Nucleic Acid [9] = test: Binding affinity to 21G telomeric DNA assessed as formation of VEGF G-quadruplex DNA at 20 uM by UV light illumination photographic analysis in presence of exonuclase 1 and KCl
Nucleic Acid [10] = test: Binding affinity to 21G telomeric DNA assessed as formation of d(G4T4g4) quadruplex DNA at 20 uM after 5 mins by label-free fluorescence spectroscopy in presence of exonuclase 1 and Na+ cation
Nucleic Acid [11] = test: Binding affinity to 21G telomeric DNA assessed as formation of d(G4T4g4) quadruplex DNA at 20 uM after 5 mins in Na+ cation-deficient buffer by label-free fluorescence spectroscopy in presence of exonuclase 1
Nucleic Acid [12] = test: Binding affinity to 21G telomeric DNA assessed as formation of G-quadruplex DNA at 20 uM after 45 mins in KCl-deficient buffer by label-free fluorescence spectroscopy in presence of exonuclase 1 and TMPyP4
Nucleic Acid [13] = test: Binding affinity to single stranded DNA20 assessed as formation of G-quadruplex DNA at 20 uM after 45 mins in KCl-deficient buffer by label-free fluorescence spectroscopy in presence of exonuclase 1 and TMPyP4
Nucleic Acid [14] = test: Binding affinity to 21G telomeric DNA assessed as formation of G-quadruplex DNA at 20 uM after 45 mins by label-free fluorescence spectroscopy in presence of exonuclase 1, Li+ cation and TMPyP4
Nucleic Acid [15] = test: Binding affinity to 21G telomeric DNA assessed as formation of G-quadruplex DNA at 20 uM after 45 mins by label-free fluorescence spectroscopy in presence of exonuclase 1, KCl and TMPyP4
Nucleic Acid [16] = test: Binding affinity to 21G telomeric DNA assessed as formation of G-quadruplex DNA at 20 uM by UV light illumination photographic analysis in presence of exonuclase 1 and bis-(benzimidazole)aryl
Nucleic Acid [17] = test: Binding affinity to single stranded DNA23 assessed as formation of G-quadruplex DNA at 20 uM by circular dichroism assay in presence of sodium cation and exonuclase 1
Nucleic Acid [18] = test: Binding affinity to single stranded DNA20 assessed as formation of G-quadruplex DNA at 20 uM by UV light illumination photographic analysis in presence of exonuclase 1 and bis-(benzimidazole)aryl
Nucleic Acid [19] = test: Binding affinity to 21G telomeric DNA assessed as formation of G-quadruplex DNA at 20 uM by circular dichroism assay in presence of exonuclase 1 and bis-(benzimidazole)aryl
Nucleic Acid [20] = test: Binding affinity to single stranded DNA20 assessed as formation of G-quadruplex DNA at 20 uM by circular dichroism assay in presence of exonuclase 1 and bis-(benzimidazole)aryl
Nucleic Acid [21] = test: Binding affinity to single stranded DNA20 assessed as formation of G-quadruplex DNA at 20 uM by UV light illumination photographic analysis in presence of exonuclase 1 and sodium cation
Nucleic Acid [22] = test: Binding affinity to single stranded DNA20 assessed as formation of G-quadruplex DNA at 20 uM by UV light illumination photographic analysis in presence of exonuclase 1 and lithium cation
Nucleic Acid [23] = test: Binding affinity to single stranded DNA18 assessed as formation of G-quadruplex DNA at 20 uM by UV light illumination photographic analysis in presence of exonuclase 1 and KCl
Nucleic Acid [24] = test: Binding affinity to single stranded DNA18 assessed as formation of G-quadruplex DNA at 20 uM by UV light illumination photographic analysis in presence of exonuclase 1 and sodium cation
Nucleic Acid [25] = test: Binding affinity to single stranded DNA18 assessed as formation of G-quadruplex DNA at 20 uM by UV light illumination photographic analysis in presence of exonuclase 1 and lithium cation
Nucleic Acid [26] = test: Binding affinity to single stranded DNA23 assessed as formation of G-quadruplex DNA at 20 uM by UV light illumination photographic analysis in presence of exonuclase 1 and sodium cation
Nucleic Acid [27] = test: Binding affinity to single stranded DNA23 assessed as formation of G-quadruplex DNA at 20 uM by UV light illumination photographic analysis in presence of exonuclase 1 and KCl
Nucleic Acid [28] = test: Binding affinity to single stranded DNA23 assessed as formation of G-quadruplex DNA at 20 uM by UV light illumination photographic analysis in presence of exonuclase 1 and lithium cation
Nucleic Acid [29] = test: Binding affinity to single stranded DNA18 assessed as formation of G-quadruplex DNA at 20 uM by circular dichroism assay in presence of KCl and exonuclase 1
Nucleic Acid [30] = test: Binding affinity to single stranded DNA18 assessed as formation of G-quadruplex DNA at 20 uM by circular dichroism assay in presence of lithium cation and exonuclase 1
Nucleic Acid [31] = test: Binding affinity to single stranded DNA18 assessed as formation of G-quadruplex DNA at 20 uM by circular dichroism assay in presence of sodium cation and exonuclase 1
Nucleic Acid [32] = test: Binding affinity to single stranded DNA20 assessed as formation of G-quadruplex DNA at 20 uM by circular dichroism assay in presence of KCl and exonuclase 1
Nucleic Acid [33] = test: Binding affinity to single stranded DNA20 assessed as formation of G-quadruplex DNA at 20 uM by circular dichroism assay in presence of lithium cation and exonuclase 1
Nucleic Acid [34] = test: Binding affinity to single stranded DNA20 assessed as formation of G-quadruplex DNA at 20 uM by circular dichroism assay in presence of sodium cation and exonuclase 1
Nucleic Acid [35] = test: Binding affinity to single stranded DNA23 assessed as formation of G-quadruplex DNA at 20 uM by circular dichroism assay in presence of KCl and exonuclase 1
Nucleic Acid [36] = test: Binding affinity to single stranded DNA23 assessed as formation of G-quadruplex DNA at 20 uM by circular dichroism assay in presence of lithium cation and exonuclase 1

C[N+](C)(C)CCC[Si]1(C)C(c2ccccc2)=C(c2ccccc2)C(c2ccccc2)=C1c1ccccc1
Activity (Nucleic Acid [1]): inactive
Activity (Nucleic Acid [2]): Active
Activity (Nucleic Acid [3]): Active
Activity (Nucleic Acid [4]): Active
Activity (Nucleic Acid [5]): inactive
Activity (Nucleic Acid [6]): inactive
Activity (Nucleic Acid [7]): Active
Activity (Nucleic Acid [8]): Active
Activity (Nucleic Acid [9]): Active
Activity (Nucleic Acid [10]): Active
Activity (Nucleic Acid [11]): inactive
Activity (Nucleic Acid [12]): inactive
Activity (Nucleic Acid [13]): inactive
Activity (Nucleic Acid [14]): inactive
Activity (Nucleic Acid [15]): Active
Activity (Nucleic Acid [16]): Active
Activity (Nucleic Acid [17]): inactive
Activity (Nucleic Acid [18]): inactive
Activity (Nucleic Acid [19]): Active
Activity (Nucleic Acid [20]): inactive
Activity (Nucleic Acid [21]): inactive
Activity (Nucleic Acid [22]): inactive
Activity (Nucleic Acid [23]): inactive
Activity (Nucleic Acid [24]): inactive
Activity (Nucleic Acid [25]): inactive
Activity (Nucleic Acid [26]): inactive
Activity (Nucleic Acid [27]): inactive
Activity (Nucleic Acid [28]): inactive
Activity (Nucleic Acid [29]): inactive
Activity (Nucleic Acid [30]): inactive
Activity (Nucleic Acid [31]): inactive
Activity (Nucleic Acid [32]): inactive
Activity (Nucleic Acid [33]): inactive
Activity (Nucleic Acid [34]): inactive
Activity (Nucleic Acid [35]): inactive
Activity (Nucleic Acid [36]): inactive
